Patent US6683052B1, “Lipopeptides containing an interferon-γ fragment, and uses thereof in pharmaceutical compositions” (Institut National de la Sante et de la Recherche Medicale …, priority 1998, dated 2004)
Where no end group is shown, it is not given here. The star is where a group is joined. Palmitoyl = CCCCCCCCCCCCCCCC(=O)*

What was measured:
murine splenocytes = assay: Induction of class II CMH molecules (IA^b) on murine splenocytes by lipopeptide fragments (FIG. 12A); assay type: cell-based, 129 Sv mice; conditions: for increase in class II CMH molecules (FIG. 12A): murine splenocytes, 24 hours, different concentrations
Experimental: (§1) Fresh splenocytes are obtained from 7-week-old female 129 Sv mice. The COLO 205 human colon carcinoma lines are obtained from the ATCC (American Type Culture Collection). The splenocytes and COLO 205 cells are maintained in RPMI 1640 (Gibco BRL, Courbevoie, France), supplemented with 10% FCS (Gibco BRL), sodium pyruvate (Sigma, St. Louis, USA) and incubated at 37° C. in 5% CO2.
(§2) The cells were stimulated for 24 hours with different concentrations of MuL, L-mIFNγ 113-132, L-mIFNγ 122-132 or MuSL. The murine splenocytes and COLO 205 cells were labelled for the expression of II MHC with 1 μg of anti-mouse IA^b FITC monoclonal antibody (mAb) (Pharmingen, San Diego, USA) and 10 μl of anti-HLA-DR clone TAL.1B5 mouse FITC mAb (Cymbus Biotechnology Ltd, Hants, UK), respectively. A negative control mouse FITC IgG1 (DAKO S. A., Trappes, France) was used as control isotype. The cells were incubated for 1 hour at 4° C. in PBS, 10% FCS and then washed, and the expression of II MHC was analysed by flow cytometry using a Coulter EPILS II cytometer (Coulter, Hialeah, Fla., USA) at a rate of 10,000 events per sample.
(§3) FIG. 12: Induction of class II CMH molecules by human or murine cells stimulated with lipopeptides derived from IFN-γ. The murine splenocytes (A) and the COLO 205 human cell line (B) were incubated for 24 hours with different concentrations of lipopeptides derived from IFN-γ. The cells were labelled with a monoclonal antibody directed against the class II CMH molecules, and analysed by flow cytometry. The ratio between the average fluorescence intensity of the cells treated with the lipopeptides and between the average fluorescence intensity of the untreated cells is indicated on the y-axis. The lipopeptide concentration is indicated in μM on the x-axis; MuL: solid circles; MuSL : hollow circles; L-mIFN 113-132: triangles; L-mIFN 122-132: X.

COLO 205 human cell line = assay: Induction of HLA-DR on COLO 205 cells by lipopeptide fragments (FIG. 12B); assay type: cell-based; conditions: for increase in class II CMH molecules (FIG. 12B): COLO 205, 24 hours, different concentrations
Experimental: as §1, §2, §3

[1] = test system: murine splenocytes and COLO 205 cells; assay: Cytotoxicity at high lipopeptide concentrations; assay type: cell-based
P388D1 = assay: Induction of class II CMH molecules on P388D1 cell line, flow cytometry; assay type: cell-based, murine; conditions: 50 μM, stimulated for 24 hours
Experimental: (§4) Principle: to check the induction of class II CMH molecules on cell lines (P388D1 and WEHI3: murine myelomonocytes) with the above-mentioned peptides.
(§5) Procedure. The cells are cultured the day before at a rate of 3×10^5 cells per well in 24-well culture plates (NUNC). The following day, the cells are stimulated with the various lipopeptide and peptide constructs at a final concentration of 50 μM in 1 ml of medium. After incubation for 24 hours at 37° C. in an atmosphere saturated with 5% CO2, the cells are recovered and incubated for 1 hour at 4° C. with 3 μg of a biotinylated mouse anti-I-Ad monoclonal antibody (Pharmingen, San Diego, USA). After revelation for 30 minutes with FITC streptavidin used at a dilution of 1:100 (Sigma, St. Louis, USA), the expression of class II molecules is determined by flow cytometry.

WEHI3 = assay: Induction of class II CMH molecules on WEHI3 cell line, flow cytometry; assay type: cell-based, murine; conditions: 50 μM, stimulated for 24 hours
Experimental: as §4, §5

splenocytes = assay: Expression of class II CMH molecules and Fc-γ receptors on splenocytes taken from an animal; assay type: cell-based, Balb/c mouse; conditions: 50 μM, 24 hours
Experimental: (§6) Principle: to evaluate the activity of the vectorized agonist on cells taken from an animal and treated in vitro (in order to assess the value of a subsequent in vivo study).
(§7) Procedure. The splenocytes and peritoneal cells taken from an animal (Balb/c mouse) are re-cultured at a rate of 2.5×10^6 splenocytes and […] peritoneal cells per well in 24-well plates (NUNC) stimulated with 50 μM of the different peptides in a final volume of 1 ml. After stimulation for 24 hours, the cells are labelled with the anti IA^d monoclonal antibody described in the preceding paragraph, according to the same protocol. To detect the Fc-γ R, the cells are labelled with 1 μg of a rat anti Fc-γ R monoclonal antibody (Pharmingen, San Diego, USA). Next, the cells are incubated for ½ hour with a rat anti IgG biotinylated polyclonal antibody. The revelation is then carried out with FITC streptavidin used at a dilution of 1:100 (Sigma, St. Louis, USA). The expression of Fc-γ R is determined by flow cytometry.

peritoneal cells = assay: Expression of class II CMH molecules and Fc-γ receptors on peritoneal cells taken from an animal; assay type: cell-based, Balb/c mouse; conditions: 50 μM, 24 hours, flow cytometry
Experimental: as §6, §7

[2] = test system: splenocytes taken from mice 129 (Wild type: WT); assay: Involvement of the IFN-γ receptor: IA^d and Fc-γ R on splenocytes of wild type mice 129; assay type: cell-based; conditions: stimulation for 24 hours, flow cytometry
Experimental: as §7
(§8) Principle. to confirm that the biological activity observed was effectively associated with a stimulation of the IFN-γ receptor, we repeated the same experiments, in parallel on splenocytes taken from mice 129 (Wild type: WT) and on cells taken from mice 129 no longer expressing the alpha chain of the IFN-γ receptor (KO mice).
(§9) Procedure. The experimental protocol followed is identical to that described in paragraph 2 above.

[3] = test system: cells taken from mice 129 no longer expressing the alpha chain of the IFN-γ receptor (KO mice); assay: Involvement of the IFN-γ receptor: IA^d and Fc-γ R on cells of mice lacking the alpha chain of the IFN-γ receptor; assay type: cell-based; conditions: stimulation for 24 hours, flow cytometry
Experimental: as §7, §8, §9

[4] = test system: human colon carcinoma cells (COLO 205); assay: Induction of HLA-DR on COLO 205 cell line, flow cytometry; assay type: cell-based; conditions: COLO 205, 50 μM
Experimental: Principle: human colon carcinoma cells (COLO 205) are analysed for their ability to express HLA-DR after having been stimulated with the various peptide constructs.
Procedure. The cell line COLO 205 is cultured at a rate of 3×10^5 cells per well in a 24-well culture plate (NUNC). The following day, the cells are stimulated with the various peptide constructs at a final concentration of 50 μM in 1 ml of medium, and are incubated at 37° C. for 24 hours. The cells are then recovered and labelled using 3 μg of an anti HLA-DR mouse biotinylated monoclonal antibody (clone L243). After revelation with FITC streptavidin, the cells are analysed by flow cytometry.

[5] = test system: human peripheral blood mononuclear cells (PBMC); assay: Induction of HLA-DR, ICAM-1 and VCAM-1 on human PBMC; assay type: cell-based; conditions: 24 hours
Experimental: Principle. In the light of the results obtained on the human cell line and on human primary cultures, the immunostimulatory potential of MuL was evaluated on human cells taken directly from a healthy donor.
Procedure. PBMCs are isolated from a bag of blood and the cells are then cultured and stimulated for 24 hours with 25 and 50 μM of MuSL or MuL in a final volume of 1 ml. The cells are then recovered and labelled for the expression of VCAM-1, ICAM-1 and HLA-DR according to the protocol already described above. Finally, the cells are analysed by flow cytometry.

[6] = test system: L929 cells infected with the VSV virus; assay type: cell-based, mouse; conditions: 1 to 10 μM
[7] = test system: splenocytes stimulated with anti-CD40 and IL-4; assay: Inhibition of IL-4 activity: anti-CD40 + IL-4 proliferation of splenocytes, tritiated thymidine; assay type: cell-based, Balb/c mice; conditions: 10 μM
Text: It is commonly described that the immunomodulatory potential of IFN-γ lies in its ability to polarize the establishment of a type-1 T helper (Th1) response, while at the same time inhibiting the development of a type-2 T helper (Th2) response. This inhibitory action on the polarization of the Th2 response takes place mainly via inhibition of the activity of IL-4. […] The stimulation of splenocytes with an anti-CD40 antibody (antibody directed against a surface cell label: CD40) and IL-4 induces a proliferation of the murine B cells, following a synergistic action between the CD40 and IL-4 stimulation (Hasbold et al. 1994).
The splenocytes taken from Balb/c mice are cultured and stimulated with anti-CD40 (10 μg/ml) and IL-4 (10 U/ml). 10 μM of the synthetic agonist of IFN-γ (MuL) or of its control lipopeptide (MuSL) are added. After stimulation for 24 hours, tritiated thymidine is added at a rate of 0.5 μCurie per well. After incubation for 18 hours, the cells are filtered off and the incorporation of tritiated thymidine is evaluated. This incorporation is proportional to the cell proliferation.

In the case of “L-mIFN-γ 113-132: fragment 113-132 of murine IFNγ, carboxamide end, N-terminal Ac-K(Pam) group (Ac-K(Palmitoyl)IRVVHQLLPESSLRKRKRSR-NH2; SMILES CCCCCCCCCCCCCCCC(=O)NCCCC[C@H](NC(C)=O)C(=O)N[C@H](C(=O)N[C@@H](CCCNC(=N)N)C(=O)N[C@H](C(=O)N[C@H](C(=O)N[C@@H](Cc1c[nH]cn1)C(=O)N[C@@H](CCC(N)=O)C(=O)N[C@@H](CC(C)C)C(=O)N[C@@H](CC(C)C)C(=O)N1CCC[C@H]1C(=O)N[C@@H](CCC(=O)O)C(=O)N[C@@H](CO)C(=O)N[C@@H](CO)C(=O)N[C@@H](CC(C)C)C(=O)N[C@@H](CCCNC(=N)N)C(=O)N[C@@H](CCCCN)C(=O)N[C@@H](CCCNC(=N)N)C(=O)N[C@@H](CCCCN)C(=O)N[C@@H](CCCNC(=N)N)C(=O)N[C@@H](CO)C(=O)N[C@@H](CCCNC(=N)N)C(N)=O)C(C)C)C(C)C)[C@@H](C)CC)”, the “increase in the expression of class II CMH molecules” value (murine splenocytes; 50 μM, splenocytes freshly obtained from mice) was 13 fold, the “factor of increase of the expression of IA^b” value (murine splenocytes; 100 μM (280 μg/ml), murine cells) was 18 and the “increase in class II CMH molecules (FIG. 12A)” value (murine splenocytes) was “marked dose-dependent increase”. For the same substance, the “increase in the expression of HLA-DR” value (COLO 205 human cell line; 50 μM, human cells) was 10 fold, the “increase in the expression of HLA-DR” value (COLO 205 human cell line; 75 μM (210 μg/ml), human cell lines) was 15 fold and the “increase in class II CMH molecules (FIG. 12B)” value (COLO 205 human cell line) was “marked dose-dependent increase”. The cytotoxicity [1] was “not cytotoxic”.

“MuSL: control "scrambled" lipopeptide: MuL in which the order of the amino acids has been rearranged, Ac-K(Pam) (Ac-K(Palmitoyl)PSRENQNAVKIQKLSVVLRREQKHRVERLAFRNQSLPF)” was tested, and the “percentage of class II CMH detected by flow cytometry, P388D1” value (P388D1) was 13%, the “percentage of class II CMH detected by flow cytometry, WEH1” value (WEHI3) was 15% and the “splenocytes II CMH (%)” value (splenocytes; flow cytometry) was 14%. For the same substance, the “splenocytes RFc (%)” value (splenocytes; flow cytometry) was 15%, the “increase of IA^d and of Fc-γ R on the treated cells” value (splenocytes; splenocytes and peritoneal cells) was “no notable activity” and the “peritoneal cells II CMH (%)” value (peritoneal cells) was 13%. The “peritoneal cells RFc (%)” value (peritoneal cells) was 20%, the “WT mice II CMH (%)” value [2] was 4% and the “WT mice RFc (%)” value [2] was 2%. For the same substance, the “KO mice II CMR (%)” value [3] was 4%, the “KO mice RFc (%)” value [3] was 3% and the “induction of the expression of HLA-DR” value [4] was “no activity”. For the same substance, the “% HLA-DR” value ([4]; 24 hours, flow cytometry) was 8.9%, the “percentage of ICAM-1 detected on PBMCs” value ([5]; 25 μM) was 29.4% and the “percentage of VCAM-1 detected on PBMCs” value ([5]; 25 μM) was 39.7%. The “percentage of HLA-DR detected on PBMCs” value ([5]; 50 μM) was 58.3%, the “percentage of ICAM-1 detected on PBMCs” value ([5]; 50 μM) was 32% and the “percentage of VCAM-1 detected on PBMCs” value ([5]; 50 μM) was 86.9%. The “effect on viral lysis (FIG. 2)” value [6] was “no effect on viral lysis”, the “effect on the synergistic anti-CD40 + IL-4 proliferation (FIG. 4)” value [7] was “no effect” and the “increase in class II CMH molecules (FIG. 12A)” value (murine splenocytes) was “neither L-mIFN-γ 122-132 nor MuSL are active”. The “increase in class II CMH molecules (FIG. 12B)” value (COLO 205 human cell line) was “neither L-mIFN-γ 122-132 nor MuSL are active”.
